From ChEMBL document CHEMBL6120951, “Viral Protein Dimerization Quality Control: A Design Strategy for a Potential Viral Inhibitor” (J Med Chem, 2024)

Legend:
MT4 = assay: Cytotoxicity against human MT4 cells assessed as reduction in cell viability incubated for 72 hrs by cell-titer glo assay; assay type: functional
[1] = tested on: Human immunodeficiency virus 1; assay: Antiviral activity against HIV-1 3B infected in human MT4 cells assessed as reduction in viral replication; assay type: functional, organism-based; conditions: Human immunodeficiency virus 1, 3B
Jurkat = assay: Cytotoxicity against human Jurkat cells assessed as reduction in cell growth incubated for 24 hrs by CellTiter-Glo luminescent cell viability assay; assay type: functional
[2] = Inhibition of SARS-CoV-2 MPro using Dabcyl-KTSAVLQSGFRKME-Edans as substrate preincubated for 15 mins followed by substrate addition measured after 30 mins by FRET assay; set-up: species or system Severe acute respiratory syndrome coronavirus 2
[3] = Cytotoxicity against African green monkey Vero cells assessed as reduction in cell viability after 72 hrs by MTT assay; assay type: toxicity, cell-based; conditions: chlorocebus sabaeus
SARS-CoV-2 = assay: Antiviral activity against SARS-CoV-2 infected in African green monkey Vero cells assessed as reduction in viral replication; assay type: functional, organism-based; conditions: Severe acute respiratory syndrome coronavirus 2, Vero

CC(=O)Nc1ccc(-c2cc(C)c(=O)n(Cc3ccc(Cl)cc3)n2)cc1
CC50 (MT4): > 100000 nM

N#Cc1ccc(Nc2nc(-c3cccnc3)nc3ccccc23)cc1
EC50 [1]: 4000 nM
CC50 (Jurkat): > 10000 nM

O=C(O)c1cc(-c2ccc(-c3ccccc3)cc2)nc2ccccc12
IC50 [2]: 480 nM
CC50 at 72 h [3]: > 50000 nM

O=C(Nc1cc(F)c(F)c(F)c1)c1ccc(F)c(S(=O)(=O)N2CCC(O)CC2)c1
CC50 (MT4): 14500 nM

CCN1C(=O)C(c2cc(O)cc(-c3cccnc3)c2)C(=O)N(c2ccccc2)c2cc(C(F)(F)F)ccc21 (configuration not stated)
EC50 [1]: 480 nM

N#Cc1ccc(C(=O)Nc2sc3c(c2C(=O)Nc2ccccc2O)CCCCC3)cc1
CC50 at 72 h [3]: > 250000 nM
EC50 (SARS-CoV-2): 380 nM

Cc1[nH]c2ccccc2c1CC(=O)N[C@@H](Cc1ccccc1)C(=O)N(C)c1ccccc1
CC50 (Jurkat): > 47000 nM

CC(C)OCCCNC(=O)c1csc(Nc2cc(F)c(Cl)c(F)c2)n1
CC50 at 72 h [3]: > 100000 nM
EC50 (SARS-CoV-2): 110 nM

O=C1NC(c2ccc(O)cc2)C2C(c3ccccc3)=NNC12 (configuration not stated)
EC50 [1]: 1800 nM
CC50 (Jurkat): > 43000 nM

CC1=C(C(C2=C(C)c3ccccc3C2=O)c2ccc(C)cc2)C(=O)CC(c2ccccc2)C1 (configuration not stated)
EC50 (SARS-CoV-2): 1820 nM

CC(C)(C#Cc1ccc(-c2ccc(Cl)c3c(NS(C)(=O)=O)nn(CC(F)(F)F)c23)c([C@H](Cc2cc(F)cc(F)c2)NC(=O)Cn2nc(C(F)(F)F)c3c2C(F)(F)[C@@H]2C[C@H]32)n1)S(C)(=O)=O
EC50 [1]: 0.105 nM

O=C(Nc1cccc(Cl)c1)C1C2CCCCC21 (configuration not stated)
CC50 (MT4): > 100000 nM

CC(C)Cc1sc(-c2nccs2)nc1C(=O)NCc1ccc(F)cc1
CC50 (MT4): 50400 nM

CCOc1cc2ncc(C#N)c(Nc3ccc(F)c(Cl)c3)c2cc1NC(=O)/C=C/CN(C)C [PELITINIB]
EC50 (SARS-CoV-2): 1250 nM

O=C(NC1CCNCC1)c1n[nH]cc1NC(=O)c1c(Cl)cccc1Cl [AT-7519]
EC50 (SARS-CoV-2): 25000 nM

CCc1cc(-c2ccc(C(F)(F)F)o2)n(-c2ccc3c(c2)nc(-c2ccccc2O)n3Cc2ccc(=O)[nH]c2)n1
EC50 [1]: 110 nM

O=C(CNC(=O)c1ccc(F)cc1)Nc1ccc(Cl)nc1Cl
CC50 (MT4): 144000 nM
